Assays:
[1] = test system: Rat Pancreatic Acinar Carcinoma (CA20948); assay: Imaging of individual organs removed from rat with CA20948 tumor; type: in vivo; conditions: about 24 hours after injection (FIG. 5)
Description: FIG. 5 is an image of individual organs taken from a rat with pancreatic acinar carcinoma (CA20948) about 24 hours after injection with Cytate 1.
(§1) A non-invasive in vivo fluorescence imaging apparatus was employed to assess the efficacy of contrast agents developed for tumor detection in animal models. A LaserMax Inc. laser diode of nominal wavelength 780 nm and nominal power of 40 mW was used. The detector was a Princeton Instruments model RTE/CCD-1317-K/2 CCD camera with a Rodenstock 10 mm F2 lens (stock #542.032.002.20) attached. An 830 nm interference […] (CVI Laser Corp., part # F10-830-4-2) was mounted in front of the CCD input lens such that only emitted fluorescent light from the contrast agent was imaged. Typically, an image of the animal was taken pre-injection of contrast agent. This image was subsequently subtracted (pixel by pixel) from the post injection images. However, the background subtraction was […] done once the animal had been removed from the sample area and returned at a later time for images taken several hours post injection.
Individual organs were removed and imaged. […] This correlates very nicely with radiolabeled Octreotate in the same model system (see de Jong et al., 1998).

[2] = test system: Rat Pancreatic Acinar Carcinoma (CA20948); assay: In vivo fluorescence imaging of rat pancreatic acinar carcinoma (CA20948) expressing the SST-2 receptor; parameters: species or system Lewis rat; conditions: for fluorescence in tumored rats at 45 minutes: 45 minutes post injection (FIGS. 2A-B)
From the text: as §1
(§2) The animals were anesthetized with rat cocktail (xylazine; ketamine; acepromazine 1.5: 1.5: 0.5) at 0.8 mL/kg via intramuscular injection. The area of the tumor (left flank) was shaved to expose tumor and surrounding surface area. A 21 gauge butterfly equipped with a stopcock and two syringes containing heparinized saline was placed into the later tail vein of the rat. Patency of the vein was checked prior to administration of the ICG via the butterfly apparatus. Each animal received 500 μL of a 0.42 mg/mL solution of ICG in water.
The imaging apparatus and the procedure used are described in Example 9. Rat pancreatic acinar carcinoma expressing the SST-2 receptor (CA20948) were induced by solid implant technique in the left flank area and palpable masses were detected 9 days post implant.
The imaging apparatus and the procedure used are described in Example 9 except that each animal received 500 μL of a 1.0 mg/mL solution of Cytate 1 solution of 25% dimethylsulfoxide in water. Rat pancreatic acinar carcinoma expressing the SST-2 receptor (CA20948) were induced by solid implant technique in the left flank area and palpable masses were detected 24 days post implant. Images were obtained at various times post injection. […] FIGS. 2A-B show a comparison of the uptake of ICG and Cytate 1 at 45 minutes in rats with the CA20948 tumor cell line.
Cytate 1 was evaluated in the CA20948 Lewis rat model. […] As a control, the organs were imaged again (FIG. 4A) and the image was compared with that of the same tissues in the uninjected rat (FIG. 4B).

[3] = Blood clearance profile of peptide-dye conjugates monitored at the rat ear; type: in vivo, Sprague-Dawley or Fischer 344 rats; conditions: bolus injection in the lateral tail vein, 0.5 to 2.0 mL
From the text: A laser of appropriate wavelength for excitation of the dye chromophore was directed into one end of a fiber optic bundle and the other end was positioned a few millimeters from the ear of a rat. A second fiber optic bundle was also positioned near the same ear to detect the emitted fluorescent light and the other end was directed into the optics and electronics for data collection. An interference filter (IF) in the collection optics train was used to select emitted fluorescent light of the appropriate wavelength for the dye chromophore.
Sprague-Dawley or Fischer 344 rats were used in these studies. The animals were anesthetized with urethane administered via intraperitoneal injection at a dose of 1.35 g/kg body weight. After the animals had achieved the desired plane of anesthesia, a 21 gauge butterfly with 12" tubing was placed in the lateral tail vein of each animal and flushed with heparinized saline. The animals were placed onto a heating pad and kept warm throughout the entire study. The lobe of the left ear was affixed to a glass microscope slide to reduce movement and vibration.
Incident laser light delivered from the fiber optic was centered on the affixed ear. Data acquisition was then initiated, and a background reading of fluorescence was obtained prior to administration of the test agent. For Cytates 1 or 2, the peptide-dye conjugate was administered to the animal through a bolus injection in the lateral tail vein, typically of 0.5 to 2.0 mL.
This procedure was repeated with several dye-peptide conjugates in normal and tumored rats and representative profiles are shown in FIGS. 6 to 10.

[4] = test system: pancreatic ductal adenocarcinoma (DSL 6A); assay: In vivo fluorescence imaging of pancreatic ductal adenocarcinoma (DSL 6A) in rats; parameters: species or system male Lewis rats
From the text: as §1
DSL 6A tumors were induced in male Lewis rats in the left flank area by the introduction of material from a solid (donor) implant and the tumors were palpable in approximately 14 days.
The animals were anesthetized with rat cocktail (xylazine; ketamine; acepromazine 1.5: 1.5: 0.5) at 0.8 mL/kg via intramuscular injection. The area of the tumor (left flank) was shaved to expose tumor and surrounding surface area. […]

[5] = test system: Prostatic Carcinoma (R3327-H); assay: In vivo fluorescence imaging of prostatic carcinoma (R3327-H) in rats; parameters: species or system young male Copenhagen rats; conditions: Dunning R3327-H
From the text: as §1
as §2, with “Each animal received 500 μL of a 0.42 mg/mL solution of ICG in water.” left out

[6] = test system: somatostatin (SST-2) receptors; conditions: cited from earlier work

## C[C@@H](O)[C@H](NC(=O)[C@@H]1CSSC[C@H](NC(=O)[C@@H](Cc2ccccc2)NC(=O)CC[N+]2=C(/C=C/C=C/C=C/C=C3/N(CCC(=O)O)c4ccc5ccccc5c4C3(C)C)C(C)(C)c3c2ccc2ccccc32)C(=O)N[C@@H](Cc2ccc(O)cc2)C(=O)N[C@H](Cc2c[nH]c3ccccc23)C(=O)N[C@@H](CCCCN)C(=O)N[C@@H]([C@@H](C)O)C(=O)N1)C(=O)O [Cytate 1, monoOctreotate-Bisethylcarboxymethylindocyanine dye]
[1]
  uptake in heart, muscle, spleen and liver: significantly less uptake
  uptake in pancreas, adrenals and tumor tissue: High uptake
[2]; CA20948, 2 minutes post injection, 500 μL of 1.0 mg/mL in 25% dimethylsulfoxide in water
  uptake into the tumor: Uptake into the tumor was seen at 2 minutes
[2]; CA20948
  fluorescence in tumored rats at 45 minutes: still quite intense
[2]; CA20948, 90 minutes post injection (FIG. 3A)
  localization in the tumor: strong localization
[2]; CA20948, 19 hours post injection
  specificity for the SST-2 receptors: showing specificity of this agent for the SST-2 receptors
[2]; CA20948, 19 hours post injection (FIG. 3B)
  tumor visualization: tumor visualization was easily observed
[2]; CA20948, post-injection
  duration of dye fluorescence in the tumor: remained intense in the tumor for several hours post-injection
[3]
  decay of fluorescence signal (blood clearance): decayed as a function of time as the conjugate cleared from the bloodstream
  fluorescence signal after bolus injection (rise): rapidly increased to a peak value

## C[C@@H](O)[C@H](NC(=O)[C@@H]1CSSC[C@H](NC(=O)[C@@H](Cc2ccccc2)NC(=O)CCN2C(=CC=CC=CC=CC3=[N+](CCC(=O)N[C@H](Cc4ccccc4)C(=O)N[C@H]4CSSC[C@@H](C(=O)N[C@H](C(=O)O)[C@@H](C)O)NC(=O)[C@H]([C@@H](C)O)NC(=O)[C@H](CCCCN)NC(=O)[C@@H](Cc5c[nH]c6ccccc56)NC(=O)[C@H](Cc5ccc(O)cc5)NC4=O)c4ccc5ccccc5c4C3(C)C)C(C)(C)c3c2ccc2ccccc32)C(=O)N[C@@H](Cc2ccc(O)cc2)C(=O)N[C@H](Cc2c[nH]c3ccccc23)C(=O)N[C@@H](CCCCN)C(=O)N[C@@H]([C@@H](C)O)C(=O)N1)C(=O)O [Cytate 2, bisOctreotate-Bisethylcarboxymethylindocyanine dye]
[3]
  decay of fluorescence signal (blood clearance): decayed as a function of time as the conjugate cleared from the bloodstream
  fluorescence signal after bolus injection (rise): rapidly increased to a peak value

## CC1(C)C(/C=C/C=C/C=C/C=C2\N(CCCCS(=O)(=O)O)c3ccc4ccccc4c3C2(C)C)=[N+](CCCCS(=O)(=O)[O-])c2ccc3ccccc3c21 [ICG, indocyanine green]
[2]; CA20948, 30 minutes post injection
  perfusion of the agent into the tumor: only a slight but transient perfusion that was absent after only 30 minutes post injection
[2]; CA20948
  fluorescence in tumored rats at 45 minutes: mostly cleared
[2]; CA20948 compared to the other two tumor lines
  non-specific localization: no non-specific localization
[4]
  reasonable images obtained: reasonable images were obtained
[4]; 500 μL of 0.42 mg/mL in water
  perfusion of the agent into the tumor: slow perfusion of the agent over time into the tumor
[5]
  perfusion of the agent into the tumor: slow perfusion of the agent over time into the tumor
  reasonable images obtained: reasonable images were obtained

## C[C@@H](O)[C@H](NC(=O)[C@@H]1CSSC[C@H](NC(=O)[C@H](N)Cc2ccccc2)C(=O)N[C@@H](Cc2ccc(O)cc2)C(=O)N[C@H](Cc2c[nH]c3ccccc23)C(=O)N[C@@H](CCCCN)C(=O)N[C@@H]([C@@H](C)O)C(=O)N1)C(=O)O [Octreotate, D-Phe-Cys'-Tyr-D-Trp-Lys-Thr-Cys'-Thr]
[6]
  targeting of somatostatin (SST-2) receptors: known to target somatostatin (SST-2) receptors

Reference: patent US6217848A, “Cyanine and indocyanine dye bioconjugates for biomedical applications” (Mallinckrodt Inc., priority 1999, dated 2001)
